Data published in article PMC10552397 (Cell Communication and Signaling : CCS, 2023).
Where two headings read alike, the source gives them in different places.

Legend:
HeLa GRASP55 KO cells = assay: cells; conditions: Homo sapiens, read-out: IC50 value GRASP55 KO
Protocol: Cell viability was measured using the MTT (3-(4,5-dimethylthiazol-2-yl)-2,5-diphenyltetrazolium bromide) assay. HeLa cells were seeded in 96-well plates with a density of 5*10^3 cells/well. […] After the incubation time, 20 µL of a 5 mg/mL MTT stock solution (ROTH, Karlsruhe, Germany, #4022.3) were added to the cells and they were incubated at 37 °C and 5% CO2 in a humidified atmosphere for 30 min. Upon removal of the MTT-containing medium 100 µL DMSO per well were added for extraction of the formazan. Absorbance was measured at 570 nm and 650 nm (reference) with a microplate reader (SynergyMx, BioTek, Winooski, VT, USA). After subtraction of the reference value, the mean of the absorbance of the solvent control was set as 100% and the relative viability was calculated for each sample.
GRASP55 KO cells were generated using the CRISPR/Cas9 system developed by the Zhang lab [59]. Double-stranded DNA oligos (5´-[sequence]-3´, 3´-[sequence]-5´), encoding guide RNAs (gRNAs) against the target gene were cloned into the Bbsl restriction site of pSpCas9(BB)-2A-GFP (PX458) vector gifted from Feng Zhang (Addgene plasmid #48,138; http://n2t.net/addgene:48138; RRID:Addgene_48138). […]
All IC50 values were calculated using GraphPad Prism 7.01.

HeLa wt cells [1] = assay: Transmission electron microscopy of Golgi apparatus, HeLa wt; type: cell-based; conditions: 24 h
Protocol: HeLa wt and HeLa GRASP55 KO cells were seeded into 10 cm dishes. […] After treatment, cells were washed with Dulbecco´s phosphate-buffered saline (DPBS, Thermo Fisher Scientific, Waltham, MA, USA, #14,190,250) and then fixed using 2.5% glutaraldehyde and 4% paraformaldehyde in 0.1 M sodium cacodylate, pH 7.4 overnight at 4 °C. Then, cells were harvested with a cell scraper and centrifuged at 4,000 × g for 5 min. Cell pellets were washed twice with 0.1 M sodium cacodylate buffer, pH 7.2, then heated to 40 °C and embedded into 3% low melting agarose. The agarose was dissolved at 40 °C in a water bath and after aspiration of the supernatant a volume of approximately 10 µL was left, which was resuspended in agarose. After centrifugation at approximately 4,000 x g for 2 min, the samples were covered with 1% OsO4 in 0.1 M sodium cacodylate buffer for 60 min at RT. After washing two times with sodium cacodylate buffer for 10 min and twice with 70% EtOH for 15 min at RT, block contrast was applied using 1% uranyl acetate/1% phosphorotungstic acid in 70% EtOH (freshly prepared and filtered) for 1 h at RT. The samples were dehydrated in a graded ethanol series (90% EtOH, 96% EtOH, 100% EtOH) and embedded in SPURR epoxy resin (Serva, Heidelberg, Germany, #21,050). After polymerization at 70 °C for 24 h, 70 nm ultrathin sections were cut using an Ultracut EM UC7 (Leica, Wetzlar, Germany). […]

HeLa wt cells [2] = assay: Immunofluorescence of LC3 and LAMP1; type: cell-based; conditions: 2 h; prodigiosin 100 nM, BafA1 10 nM
Protocol: For immunofluorescence microscopy, HeLa cells were seeded on glass coverslips in 24-well plates. After treatment, cells were fixed in 4% paraformaldehyde for 15 min on ice, quenched with 50 mM NH4Cl for 15 min and permeabilized with 50 µg/mL digitonin (Sigma-Aldrich, St. Louis, MO, USA, #D141) for 5 min. Fixed samples were blocked with 3% BSA (Roth, Karlsruhe, Germany, #8076) for 30 min or overnight and incubated with primary antibodies diluted in 3% BSA for 2 h. Samples were then washed three times with DPBS, incubated with the appropriate secondary antibodies diluted in 3% BSA for 30 min and washed three times with DPBS. Afterwards, cells were embedded in ProLong Glass Antifade Mountant (Thermo Fisher Scientific, Waltham, MA, USA, #P36980) containing 1 µg/mL DAPI (Roth, Karlsruhe, Germany, #6335.1). Images were recorded with an Axio Observer 7 fluorescence microscope (Carl Zeiss Microscopy, Oberkochen, Germany) using a 40x/1,4 Oil DIC M27 Plan-Apochromat objective (Carl Zeiss Microscopy, Oberkochen, Germany) and an ApoTome 2 (Carl Zeiss Microscopy, Oberkochen, Germany).

cathepsin B = molecular target: T1, cathepsin B (Homo sapiens, UniProt P07858); assay: Cathepsin B activity assay in treated HeLa cells; type: cell-based; conditions: 24 h, concentration-dependent, HeLa wt
T1 construct: host or cells: HeLa wt cells
Description: Antibodies against β-actin (Sigma-Aldrich, St. Louis, MO, USA, #A5316, clone AC-74, 1:5000), B4GALT1 (Sigma-Aldrich, St. Louis, MO, USA, #HPA010807, 1:200), GAPDH (abcam, Cambridge, UK, #ab8245, 1:5000), GRASP55 (Proteintech, Chicago, IL, USA, #10,598–1-AP, 1:200 for IF and 1:2000 for WB), LAMP1 (Sigma-Aldrich, St. Louis, MO, USA, #L1418, 1:200), LC3B (MBL, Woburn, MA, USA, #M-152–3, 1:200 for IF and Cell Signalling Technology, Danvers, MA, USA, #2775, 1:1000 for WB), SQSTM1 (PROGEN, Heidelberg, Germany, #GP62-C, 1:1000) and TGN46 (Bio-Rad, Hercules, CA, USA, #AHP500GT, 1:200) were used. For WB, IRDye 800- or IRDye 680-conjugated secondary antibodies were purchased from LI-COR Biosciences (Lincoln, NE, USA, #926–68,077, #926–32,211 and #926–32,210). […] The cathepsin activity of treated HeLa cells was quantified using the fluorimetric Cathepsin B Activity Assay Kit (abcam, Cambridge, UK, #ab65300) according to the manufacturer´s instructions and measured with a microplate reader (SynergyMx, BioTek, Winooski, VT, USA).

In the case of `CCCCCC1=C/C(=C/c2[nH]c(-c3ccc[nH]3)cc2OC)N=C1C` [Prodigiosin, prodigiosin], the IC50 (HeLa GRASP55 KO cells; 24 h) is reported as 1420 nM, the IC50 (HeLa GRASP55 KO cells; 72 h) is reported as 83.3 nM and the “Golgi apparatus morphology (TEM)” value (HeLa wt cells [1]; 10 nM) is reported as “cisternae number and length decreased and cisternae were more voluminous”. For the same compound, the “Golgi apparatus morphology (TEM)” value (HeLa wt cells [1]; 100 nM) was “distinct swelling of the Golgi apparatus”, the LC3-positive structures (HeLa wt cells [2]) was “increase” and the “co-localization of LC3- and LAMP1-positive structures” value (HeLa wt cells [2]) was “highly significant increase”. The “cathepsin B activity” value (cathepsin B) was “significantly reduced”.
